Key:
[1] = test system: HepG2; assay: Inhibition of apoB secretion in human HepG2 cells after 40 hrs by ELISA; format: functional, cell-based; conditions: HepG2, 40 h
[2] = Inhibition of MTP from dog liver microsomes by scintillation counting; parameters: species or system Canis lupus familiaris, Microsome

With CCCCCNC(=O)[C@@H](NC(=O)c1nc2ccc(NC(=O)c3ccccc3-c3ccc(C(C)(C)C)cc3)cc2s1)c1ccccc1 the IC50 [1] was 3.1 nM and the IC50 [2] was 8.4 nM.

For CC(C)(C)c1ccc(-c2ccccc2C(=O)Nc2ccc3nc(C(=O)N[C@H](C(=O)N4CCC(F)(F)C4)c4ccccc4)sc3c2)cc1, the IC50 [1] was 8.8 nM.

From ChEMBL document CHEMBL1153899, “Discovery of benzothiazole derivatives as efficacious and enterocyte-specific MTP inhibitors” (Bioorg Med Chem Lett, 2009)
